{"source": "patent US20170202932A1", "about": "“METHODS FOR INHIBITING NEURON APOPTOSIS AND NECROSIS” (NEWSOUTH INNOVATIONS PTY LIMITED, priority 2012, published 2017)", "key": {"[1]": {"biological_target": "T1, recombinant mouse TRPC3b channels (Mus musculus, UniProt Q9QZC1, R524G)", "T1 construct": "Full length mouse TRPC3 transcripts were obtained by PCR; expressed in transfected cells; host or cells: HEK293 cells, stably transfected (pIRES-DsRed2 vector)", "T1 sequence (Q9QZC1 75-910 R524G limits assumed)": "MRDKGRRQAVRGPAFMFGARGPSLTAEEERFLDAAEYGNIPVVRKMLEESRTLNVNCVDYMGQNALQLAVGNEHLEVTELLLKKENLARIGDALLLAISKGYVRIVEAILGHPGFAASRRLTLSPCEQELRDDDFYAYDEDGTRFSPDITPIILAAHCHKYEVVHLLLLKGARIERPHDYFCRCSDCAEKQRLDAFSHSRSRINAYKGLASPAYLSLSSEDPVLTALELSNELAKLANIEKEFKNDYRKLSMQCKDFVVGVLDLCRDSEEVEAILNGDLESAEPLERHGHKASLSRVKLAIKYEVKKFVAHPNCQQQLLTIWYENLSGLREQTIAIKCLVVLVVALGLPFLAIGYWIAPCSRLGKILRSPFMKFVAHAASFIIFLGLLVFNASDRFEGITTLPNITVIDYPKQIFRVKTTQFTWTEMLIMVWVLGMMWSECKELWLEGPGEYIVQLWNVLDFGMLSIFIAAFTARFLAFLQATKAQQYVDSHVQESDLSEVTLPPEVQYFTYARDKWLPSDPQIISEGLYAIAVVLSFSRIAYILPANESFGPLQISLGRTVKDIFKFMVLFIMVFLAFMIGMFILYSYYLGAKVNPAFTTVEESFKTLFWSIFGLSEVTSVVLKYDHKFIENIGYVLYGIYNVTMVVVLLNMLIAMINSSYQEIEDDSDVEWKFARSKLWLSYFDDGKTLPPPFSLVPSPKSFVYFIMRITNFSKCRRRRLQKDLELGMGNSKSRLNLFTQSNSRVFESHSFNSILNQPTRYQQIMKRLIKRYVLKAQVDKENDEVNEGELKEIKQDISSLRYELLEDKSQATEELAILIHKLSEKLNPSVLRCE", "test": "Indo-1 ratiometric Ca2+ imaging of CCh-activated Ca2+ entry, HEK293 cells expressing TRPC3b", "format": "cell-based", "conditions": "genistein 200 μM pre-incubation, n=5, without genistein 182.7±20.8 nM", "method": "(§1) The TRPC3-mediated Ca^2+ entry through two distinct activation pathways was assessed by microfluorometric Ca^2+ imaging: i) Ca^2+ entry via the M3 receptor-PLCB-DAG pathway endogenous to HEK293 cells, using Indo-1 as a Ca^2+ indicator; and ii) Ca^2+ entry via mGluR1-PLCB-DAG through co-expression of the mGluR1, using Fluo-4 as a Ca^2+ indicator.\nCells were grown in DMEM media on 18 mm circular coverslips coated with poly-D-lysine (25 μg/ml) and collagen (25 μg/ml) at 1:1 ratio. The cells were washed with HPSS. The coverslips were then incubated with HPSS and 0.1% pluronic acid, along with either 1 μM Indo-1AM or Fluo-4AM Ca^2+ indicator (Invitrogen, U.S.A.) for an hour prior to the experiment. The cells were then placed into HPSS with 5 μM GdCl3 to block endogenous Ca^2+ entry (added to all superfusions). The M3 AChR-mediated TRPC3 activation was achieved by bath application of carbachol. The mGluR1-mediated TRPC3 activation was achieved by bath application of DHPG.\nFor Indo-1 experiments, the cells were mounted on a Nikon TMD inverted microscope fitted with an Indo-1 filter set (Nikon Indo-1 filter cube, 485 nm/DM455 nm/405 nm) and illuminated with a mercury lamp. Cells were excited at 350 nm, with dual emission of the field was detected at 410 nm and 480 nm using two photomultiplier tubes, and the ratioed emission was determined in real-time using in-house software. […]"}, "[2]": {"biological_target": "T2, recombinant mouse TRPC3b channels (Mus musculus, UniProt Q9QZC1, R524G)", "T2 construct": "Full length mouse TRPC3 transcripts were obtained by PCR; expressed in transfected cells; host or cells: HEK293 cells stably expressing TRPC3b, additionally transfected with mGluR1-eYFP cDNA", "T2 sequence (Q9QZC1 75-910 R524G)": "T1 sequence (Q9QZC1 75-910 R524G limits assumed)", "test": "Fluo-4 Ca2+ imaging of DHPG-activated Ca2+ entry, HEK293 cells co-expressing TRPC3b and mGluR1", "format": "cell-based", "conditions": "genistein 200 μM pre-application, n=6, without genistein 1.56±0.0713", "method": "as §1\nCells were grown in DMEM media on 18 mm circular coverslips coated with poly-D-lysine (25 μg/ml) and collagen (25 μg/ml) at 1:1 ratio. The cells were washed with HPSS. The coverslips were then incubated with HPSS and 0.1% pluronic acid, along with either 1 μM Indo-1AM or Fluo-4AM Ca^2+ indicator (Invitrogen, U.S.A.) for an hour prior to the experiment. […]\nFor Fluo-4 experiments, the cells were mounted on an inverted microscope (DMIL, Leica) with a 20× 0.4NA objective (Leica HCX PL Fluotar), and illuminated with a mercury lamp using a GFP filter (part no. 11504164; excitation 470/40 nm, dichroic 500 nm, emission 525/50 nm) every 5 seconds (Andor iXon+ 885 EMCCD Camera, Ireland) with a gated shutter (Ludl Electronic Products, U.S.A.), controlled via Andor IQ (v1.8.1) software. The images were then analysed using Image J software (NIH, U.S.A.) with individual regions of interest (ROIs) identified for HEK293 cells responding to M3 or mGluR1 agonists with increased Ca^2+ signal. […]"}}, "data": [{"smiles": "O=c1c(-c2ccc(O)cc2)coc2cc(O)cc(O)c12", "note": "[genistein, 4′, 5,7-trihydroxyisoflavone]", "values": [{"measurement": "peak [Ca2+] on return of extracellular Ca2+ (CCh-activated Ca2+ entry)", "setting": "[1]", "result": "86.7 ± 8.7", "unit": "nM"}, {"measurement": "Fluo-4 fluorescence F/F0 (TRPC3-mediated Ca2+ entry after DHPG)", "setting": "[2]", "result": "1.031±0.0144"}]}]}
